In patent US20220152077A1 (THE UNIVERSITY OF WARWICK, priority 2019, published 2022):
“Also recorded” adds a separate entry of the source.

Assays:
[1] = system: synaptic transmission in the hippocampus; test: Extracellular fEPSP recording in hippocampal slices (synaptic transmission); type: cell-based, rat; details: rat hippocampal slices, CA1; read-out: IC50, inhibition of synaptic transmission (fEPSP slope)
Experimental: (§1) Preparation of hippocampal slices: Sagittal slices of hippocampus (300-400 μm) were prepared from male Sprague Dawley rats, at postnatal days 12 to 20. Rats were kept on a 12-hour light-dark cycle with slices made 90 minutes after entering the light cycle. […] The brain was removed, cut down the mid line and the two sides of the brain stuck down to a metal base plate. […] Slices were stored at 34° C. for 1 to 6 hours in aCSF (1 mM MgCl2, 2 mM CaCl2) before use.
Extracellular recording: A slice was transferred to the recording chamber, submerged in aCSF and perfused at 4 to 6 mL/min (32° C.). The slice was placed on a grid allowing perfusion above and below the tissue and all tubing was gas tight (to prevent loss of oxygen). For extracellular recording, an aCSF filled microelectrode was placed on the surface of stratum radiatum in CA1. […] For fEPSPs a 10 to 20 minute baseline was recorded at a stimulus intensity that gave 40 to 50% of the maximal response. […] For fEPSP slope, a 1 ms linear region after the fibre volley was measured. Extracellular recordings were made independently on two electrophysiology rigs.
Statistical significance was tested using the unpaired t-test and one-way and two-way ANOVAs with Bonferroni correction for multiple comparisons.
(§2) Data Analysis. […] Statistical significance was tested as indicated in the text using paired or unpaired t-tests or one-way or two-way ANOVAs with repeated measures (RM) as appropriate. Bonferroni corrections for multiple comparisons were performed. All in vitro cell signalling assay data was analysed using Prism 7.0e (Graphpad software, San Diego, Calif.), with all concentration-response curves being fitted using a 3 parameter logistic equation to calculate response range and IC50. All cAMP data was normalised to a forskolin concentration-response curve ran in parallel to each assay. […] Radioligand displacement curves were fitted to the one-site competition binding equation yielding log Ki values. […] To determine the extent of ligand-induced recruitment of β-arrestin2-YFP to either the A1R or A3R, the BRET signal was calculated by subtracting the 530 nm/450 nm emission for vehicle-treated cells from ligand-treated cells (ligand-induced ΔBRET). ΔBRET for each concentration at 5 minutes (maximum response) was used to produce concentration-response curves.

[2] = system: seizure activity induced in hippocampal slices; test: Seizure model in hippocampal slices (no added Mg2+, 6 mM K+ aCSF); type: cell-based, rat; details: adenosine 20-100 μM, NECA 300 nM, CPA 300 nM, BnOCPA 300 nM to 1 μM
Experimental: as §1
Seizure model: Seizure activity was induced in hippocampal slices using aCSF which contained no added Mg^2+ and with the total K^+ concentration increased to 6 mM with KCl. Removal of extracellular Mg^2+ facilitates NMDA receptor activation producing long lasting EPSPS, which can sum together to produce tonic activation. Increasing the extracellular concentration of K^+ depolarises neurons leading to firing and release of glutamate to sustain activity. Both the increase in K^+ concentration and removal of Mg^2+ are required to produce spontaneous activity in hippocampal slices. Spontaneous activity was measured with an aCSF-filled microelectrode placed within stratum radiatum in CA1.

[3] = system: membrane potential of pyramidal cells; test: Whole cell current clamp recording of membrane potential, CA1 pyramidal cells; type: cell-based, rat
Experimental: as §1
Whole cell patch clamp recording from hippocampal pyramidal cells: A slice was transferred to the recording chamber and perfused at 3 mL/min with aCSF at 32±0.5° C. Slices were visualised using IR-DIC optics with an Olympus BX151W microscope (Scientifica) and a CCD camera (Hitachi). […] Voltage and current recordings were obtained using an Axon Multiclamp 700B amplifier (Molecular Devices, USA) and digitised at 20 KHz. Data acquisition and analysis was performed using Pclamp 10 (Molecular Devices). For voltage clamp experiments, CA1 pyramidal cells were held at −60 mV. Peptides to interfere with G protein signalling were introduced via the patch pipette into the recorded cell.

human (h) A1R = target: T1, human (h) A1R (Homo sapiens, UniProt P30542); test: Radioligand binding, [3H]DPCPX, membranes of CHO-K1-hA1R cells; details: displacement of [3H]DPCPX
T1 sequence (P30542 1-326): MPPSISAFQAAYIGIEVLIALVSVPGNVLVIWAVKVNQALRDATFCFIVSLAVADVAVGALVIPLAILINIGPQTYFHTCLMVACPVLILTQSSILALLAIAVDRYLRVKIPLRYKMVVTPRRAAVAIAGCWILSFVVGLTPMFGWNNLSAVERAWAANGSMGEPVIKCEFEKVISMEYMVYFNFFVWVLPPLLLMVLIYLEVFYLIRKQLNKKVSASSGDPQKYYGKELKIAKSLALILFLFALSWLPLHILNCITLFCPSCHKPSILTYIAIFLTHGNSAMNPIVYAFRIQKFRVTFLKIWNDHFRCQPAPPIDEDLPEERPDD
Experimental: Radioligand binding. Radioligand displacement assays were conducted using crude membrane preparations (100 μg protein per tube) acquired from homogenisation of CHO-K1-hA1R cells in ice-cold buffer (2 mM MgCl2, 20 mM HEPES, pH 7.4). […] Non-specific binding was determined in the presence of 10 μM DPCPX. […] Free radioligand was separated from bound radioligand by filtration through Whatman® glass microfiber GF/B 25 mm filters (Sigma-Aldrich). Each filter was then placed in a Sterilin™ scintillation vial and radioactivity determined by: addition of 4 mL of Ultima Gold XR liquid scintillant (PerkinElmer), overnight incubation at room temperature and the retained radioactivity determined using a Beckman Coulter LS 6500 Multi-purpose scintillation counter (Beckman Coulter Inc.; Indiana, USA).
Data Analysis. […] Statistical significance was tested as indicated in the text using paired or unpaired t-tests or one-way or two-way ANOVAs with repeated measures (RM) as appropriate. Bonferroni corrections for multiple comparisons were performed. All in vitro cell signalling assay data was analysed using Prism 7.0e (Graphpad software, San Diego, Calif.), with all concentration-response curves being fitted using a 3 parameter logistic equation to calculate response range and IC50. All cAMP data was normalised to a forskolin concentration-response curve ran in parallel to each assay. […]

Goa = type: cell-based, human; details: PTX-treated cells
Experimental: (§3) Cells were then incubated for 24 hours before addition of 100 ng/ml PTX, to inhibit activity of endogenous Gαi/o, and then incubated for a further 16-18 hours. Transfected cells were then assayed as per cAMP inhibition experiments, but co-stimulated with agonist and 100 nM forskolin.
as §2

Gob = test: cAMP accumulation in PTX-pre-treated CHO-K1-hA1R cells transfected with PTX-insensitive Gob; type: cell-based, human
Experimental: as §3, §2

human A1R = target: T2, human A1R (Homo sapiens, UniProt P30542); test: BRET assay for β-arrestin2 recruitment in HEK 293 cells; type: cell-based; details: data not shown
T2 sequence (P30542 1-326): T1 sequence (P30542 1-326)
Experimental: as §2

isolated frog heart = test: Frog heart preparation, heart rate; design: species or system Xenopus leavis; details: adenosine 30 μM, BnOCPA 300 nM
Experimental: Frog heart preparation: Xenopus […] frogs (young adult males) were supplied from Portsmouth Xenopus Resource Centre. Frogs were euthanized with MS222 (0.2% at a pH of 7), decapitated and pithed. The animals were dissected to reveal the heart and the pericardium carefully removed. Heart contractions were measured with a force transducer (AD instruments). Heart rate was acquired via a PowerLab […] (AD instruments) controlled by LabChart 7 (AD instruments). The heart was regularly washed with ringer and drugs were applied directly to the heart.

[4] = system: urethane-anaesthetised, spontaneously breathing adult rats; test: In vivo anaesthetised rat preparation, heart rate and mean arterial blood pressure; details: IV; adenosine 1 mg·kg^−1, BnOCPA 10 μg·kg^−1, CPA 420 ng·kg^−1
[5] = system: synaptic transmission in spinal nociceptive afferents; test: Dorsal root afferent-evoked EPSPs in dorsal horn neurones, rat spinal cord slices; type: cell-based; details: rat lumbar spinal cord slices, 0.1 Hz
Experimental: Spinal cord slice preparation: Adult male Sprague-Dawley rats, aged 8-12 weeks (260-280 g), were housed in an air-conditioned room on a 12 hour light/dark cycle with food and water available ad libitum. Rats were terminally anaesthetized using isofluorane and decapitated. […] A laminectomy was performed and the spinal cord and associated roots gently dissected and teased out of the spinal column and surrounding tissues. Dura and pia mater and ventral roots were subsequently removed with fine forceps and the spinal cord hemisected. Care was taken to ensure dorsal root inputs to the spinal cord were maintained. The hemisected spinal cord-dorsal root preparations were secured to a tissue slicer and spinal cord slices (400-450 μm thick) with dorsal roots attached cut in chilled (<4° C.) high sucrose aCSF using a Leica VT1000s microtome. Slices were transferred to a small beaker containing ice-cold standard aCSF (see below) and rapidly warmed to 35±1° C. in a temperature-controlled water bath over a 20 minute period, then subsequently removed and maintained at room temperature (22±2° C.) prior to electrophysiological recording.
Spinal cord electrophysiological recording: For electrophysiological recording, a spinal cord slice was transferred to a custom-built chamber. […]

[6] = system: urethane-anaesthetised, spontaneously breathing adult rats; test: In vivo anaesthetised rat preparation, respiration
Description: In vivo anaesthetised rat preparation for cardiorespiratory recordings: Anaesthesia was induced in adult male Sprague Dawley rats (230-330 g) with isofluorane (2-4%; Piramal Healthcare). The femoral vein was catheterised for drug delivery. Anaesthesia was maintained with urethane (1.2-1.7 g/kg; Sigma) in sterile saline delivered via the femoral catheter. The femoral artery was catheterised and connected to a pressure transducer (Digitimer) to record arterial blood pressure. […] The rats were then allowed to stabilise before the experiments began. […] Arterial blood pressure recordings were used to derive heart rate (HR: beats·minute^−1; BPM), and to calculate mean arterial blood pressure (MAP: Diastolic pressure+⅓*[Systolic Pressure−Diastolic pressure]). Airflow measurements were used to calculate: tidal volume (VT; mL; pressure sensors were calibrated with a 3 mL syringe), and respiratory frequency (f; breaths·min-1; BrPM). Minute ventilation (VE; mL·min-1) was calculated as f×VT.
Adult male Sprague Dawley rats (400-500 g) were anaesthetised with urethane and instrumented as described above, with the exception that the arterial cannulation was not performed.
After a 20 minutes recovery period CPA (6.3 μg·kg^−1) was administered. All injections were administered IV as a 350 μl·kg^−1 bolus. Changes in f, VT, and VE were measured. If the dosing occurred close to a respiratory event such as a sigh a second IV dose was administered, with 20 minute recovery periods either side of the injection.
One-way ANOVAs, with repeated measures as appropriate, and with Bonferroni correction for multiple comparisons were used. Statistical significance for the effects of IV saline was tested using paired t-tests. Data are reported throughout as mean±SEM and n values are reported for each experiment. […] The significance level was set at P<0.05, with actual P values reported in the figure legends and summaries, by way of abbreviations and asterisks, on the graphs: ns, not significant; * P<0.05; **, P<0.02; ***, P<0.001; ****, P<0.0001.

[7] = IV bolus, BnOCPA 8.3 ug/kg, CPA 6.3 μg·kg^−1

SMILES: OC[C@H]1O[C@@H](n2cnc3c(NC4CCCC4)ncnc32)[C@H](O)[C@@H]1O [CPA, N-Cyclopentyladenosine]
- IC50 [1]: 0.0118 ± 0.0027 µM
- effect on seizure activity [2]: completely suppressed neuronal firing; also recorded: abolished seizure activity
- mean hyperpolarisation by CPA in the presence of BnOCPA ([3]; CPA 300 nM after BnOCPA 300 nM, 10 minutes): 2.7±2 mV
- membrane potential after agonist ([3]; adenosine 100 μM, CPA 300 nM): −71.3±1.4 mV
- mean change of membrane potential (hyperpolarisation) ([3]; adenosine 100 μM, CPA 300 nM, BnOCPA 300 nM-1 μM): −7.3±0.85 mV
- effect on membrane potential ([3]; example traces, CA1 pyramidal cells): hyperpolarised the membrane potential
- binding affinity at the A1R (comparison) (human (h) A1R): equal affinity
- activation of / coupling to Goa (Goa): coupled to a range of Gi/o subunits, and in particular Goa
- inhibition of cAMP accumulation via Gob (Gob): inhibit cAMP accumulation through coupling to Gob
- β-arrestin recruitment at the A1R (human A1R): no β-arrestin recruitment
- effect on isolated frog heart rate (isolated frog heart): reduced the isolated frog heart rate similar to adenosine
- reduction / change of heart rate (isolated frog heart; CPA): 6.2±0.5 BPM
- change of HR [4]: about 50%
- heart rate (HR) after injection [4]: 207±29 BPM
- mean arterial blood pressure (MAP) after injection [4]: 51±5 mmHg
- effect on dorsal root afferent-evoked EPSPs [5]: significant reduction in amplitude of the EPSPs in CPA, comparable to that of BnOCPA
- minute ventilation (VE) after injection [6, 7]: 99 ± 19 mL/min
- respiratory frequency (f) after injection [6, 7]: 108±10 BrPM
- tidal volume (VT) after injection [6, 7]: 0.8 ± 0.1 mL
- effect on respiration ([6]; intravenous injection): caused significant respiratory depression
